Earlier results in patent US6727058B2, “Intergrase assay” (priority 1998, dated 2004).

Molecular target: lacR (Escherichia coli, UniProt P03023)
Conditions: association constant; Barkley & Bourgeios 1980

lacR, sequence (P03023 whole entry): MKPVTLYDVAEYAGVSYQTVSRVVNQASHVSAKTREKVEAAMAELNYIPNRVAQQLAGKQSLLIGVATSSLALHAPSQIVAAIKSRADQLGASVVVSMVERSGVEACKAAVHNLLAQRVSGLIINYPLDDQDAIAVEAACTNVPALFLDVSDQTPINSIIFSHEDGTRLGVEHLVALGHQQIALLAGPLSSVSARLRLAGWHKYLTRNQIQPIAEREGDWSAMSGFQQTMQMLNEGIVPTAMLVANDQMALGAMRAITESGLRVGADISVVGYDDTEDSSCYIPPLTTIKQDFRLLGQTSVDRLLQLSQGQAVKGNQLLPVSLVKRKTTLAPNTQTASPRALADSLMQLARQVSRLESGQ

CC(C)S[C@@H]1O[C@H](CO)[C@H](O)[C@H](O)[C@H]1O [IPTG]
ka of lacR complexing IPTG: ≈ 10^6 M^−1
